What was measured:
[1] = test system: Acinetobacter baumannii; experiment: Antimicrobial activity against SAM/CTX/AK/CRO/CN drugs-resistant Acinetobacter baumannii 0004 assessed as inhibition of bacterial growth incubated for approximately 18 hrs by resazurin dye based broth microdilution assay; type: functional
[2] = test system: Staphylococcus aureus; experiment: Antimicrobial activity against Staphylococcus aureus ATCC 25923 assessed as inhibition of bacterial growth incubated for approximately 18 hrs by resazurin dye based broth microdilution assay; type: functional
[3] = test system: Candida albicans; experiment: Antimicrobial activity against Candida albicans ATCC 14053 assessed as inhibition of bacterial growth incubated for approximately 18 hrs by resazurin dye based broth microdilution assay; type: functional
[4] = Hemolytic activity in Sprague-Dawley rat erythrocytes incubated for 1 hr by multifunctional microplate reader analysis; type: toxicity, cell-based, Erythrocyte; details: for HC50 at 1 h: Sprague-Dawley, erythrocytes; for HC5: erythrocyte, 1 h
[5] = test system: Acinetobacter baumannii; experiment: Antimicrobial activity against SAM/CTX/AK/CRO/CN drugs-resistant Acinetobacter baumannii 0101 assessed as inhibition of bacterial growth incubated for approximately 18 hrs by resazurin dye based broth microdilution assay; type: functional
[6] = test system: Acinetobacter baumannii; experiment: Antimicrobial activity against CTX/AK/CRO drugs-resistant Acinetobacter baumannii 0110 assessed as inhibition of bacterial growth incubated for approximately 18 hrs by resazurin dye based broth microdilution assay; type: functional
[7] = test system: Acinetobacter baumannii; experiment: Antimicrobial activity against CTX/CRO/CN drugs-resistant Acinetobacter baumannii 0214 assessed as inhibition of bacterial growth incubated for approximately 18 hrs by resazurin dye based broth microdilution assay; type: functional
[8] = test system: Acinetobacter baumannii; experiment: Antimicrobial activity against SAM/CTX/CRO/CN drugs-resistant Acinetobacter baumannii 0320 assessed as inhibition of bacterial growth incubated for approximately 18 hrs by resazurin dye based broth microdilution assay; type: functional
[9] = test system: Acinetobacter baumannii; experiment: Antimicrobial activity against SAM-resistant Acinetobacter baumannii 0413 assessed as inhibition of bacterial growth incubated for approximately 18 hrs by resazurin dye based broth microdilution assay; type: functional

Row | Substance | MIC [1] [µM] | MIC [2] [µM] | MIC [3] [µM] | HC50 at 1 h [4] [µM] | HC5 [4] [µM] | MIC [5] [µM] | MIC [6] [µM] | MIC [7] [µM] | MIC [8] [µM] | MIC [9] [µM]
1 | H-AWKAKLKRLAIAWKR-OH | 4 | > 32 | 8 | > 256 | > 256 | 8 | 8 | 4 | 4 | 4
2 | H-FWKKVFKWIWRVLHNFG-OH | 8 | – | – | 12.6 | 1.28 | – | – | – | – | –
3 | H-GLWKRWKKVLWGAKNKI-OH | 2 | 16 | 8 | > 256 | > 256 | 4 | 4 | 4 | 2 | 2
4 | H-GWAKRLVQRLADWLRKF-OH | 2 | 8 | > 32 | 43.9 | 7.22 | – | – | – | – | –
5 | H-IWLAVWKGLLKRWLH-OH | 2 | 2 | 16 | 10.5 | 1.17 | – | – | – | – | –
6 | H-KIRWLLYWIRRKRL-OH | 16 | – | – | – | – | – | – | – | – | –
7 | H-KLKRWLVWLIRKLW-OH | 16 | – | – | – | – | – | – | – | – | –
8 | H-KRIWRKILWWIKWR-OH | 8 | – | – | – | – | – | – | – | – | –
9 | H-KWARRLVYLIANYWKKR-OH | 2 | > 32 | > 32 | 117 | 14.63 | – | – | – | – | –
10 | H-KWFKKLPKILHKLAKKW-OH | 2 | 2 | > 32 | 294 | 38.67 | 2 | 2 | 4 | 2 | 2
11 | H-KWKIFKRIVGRILRYLR-OH | 4 | 8 | > 32 | 15.7 | 1.47 | – | – | – | – | –
12 | H-LWKILKKIWRVLKNWN-OH | 4 | 8 | 32 | 35.9 | 7.59 | – | – | – | – | –
13 | H-RIRFKWRWWMRIRLKWY-OH | 16 | > 32 | > 32 | > 256 | > 256 | – | – | – | – | –
14 | H-RIWVLIYRWYRKWY-OH | 32 | – | – | – | – | – | – | – | – | –
15 | H-RLIKIWWIYRRKWR-OH | 128 | – | – | – | – | – | – | – | – | –
16 | H-RLWKIWLVWIRWRNQK-OH | 16 | > 32 | > 32 | 330 | 27.41 | – | – | – | – | –
17 | H-RLWKIWWKIWRVLI-OH | 16 | – | – | – | – | – | – | – | – | –
18 | H-RQIKIWFQNRRWGLQLK-OH | 16 | > 32 | > 32 | > 256 | > 256 | 16 | 16 | 16 | 16 | 8
19 | H-RRRLILWILWRRLR-OH | 4 | 8 | > 32 | 166 | 10.09 | – | – | – | – | –
20 | H-RWRKIWFLWRYKIW-OH | 128 | – | – | – | – | – | – | – | – | –
21 | H-VLAANRLVRRLAQKIAR-OH | 32 | > 32 | 16 | > 256 | > 256 | – | – | – | – | –
22 | H-WFKKLLKLALKWAKYA-OH | 4 | 2 | > 32 | 13.1 | 1.46 | – | – | – | – | –
